In US20250026721A1, “COMPOUNDS AND METHODS FOR MODULATING RAS-PI3K” (Vividion Therapeutics, Inc., priority 2023, published 2025) one finds IC50 data, which are given here for 25 molecules.

Each structure is given as a SMILES string.

The target of the assay is T1, PIK3CA (Homo sapiens, UniProt P42336).
T1 construct: endogenous in cells; host or cells: Jurkat cell lysate
The assay can be described thus: In vitro ELISA target engagement assay for PIK3CA in Jurkat cellular lysate (competition with PIK3CA Biotin Probe). It counts as binding. Particulars: 1 hour at rt, then 500 nM PIK3CA Biotin Probe, read-out: Elisa Target Engagement Assay (TE50). The essentials: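 Competition format in Jurkat lysate: compound (serial dilutions, top 200 μM) for 1 h at rt, then 500 nM final biotinylated PIK3CA probe for 1 h at rt. Sandwich ELISA with capture antibody and Neutravidin-HRP luminescence read-out measured probe-labelled PIK3CA, giving TE50.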
(In general: In an ELISA, binding on a coated surface is turned into a signal by an enzyme label.)

T1 sequence (P42336 whole entry): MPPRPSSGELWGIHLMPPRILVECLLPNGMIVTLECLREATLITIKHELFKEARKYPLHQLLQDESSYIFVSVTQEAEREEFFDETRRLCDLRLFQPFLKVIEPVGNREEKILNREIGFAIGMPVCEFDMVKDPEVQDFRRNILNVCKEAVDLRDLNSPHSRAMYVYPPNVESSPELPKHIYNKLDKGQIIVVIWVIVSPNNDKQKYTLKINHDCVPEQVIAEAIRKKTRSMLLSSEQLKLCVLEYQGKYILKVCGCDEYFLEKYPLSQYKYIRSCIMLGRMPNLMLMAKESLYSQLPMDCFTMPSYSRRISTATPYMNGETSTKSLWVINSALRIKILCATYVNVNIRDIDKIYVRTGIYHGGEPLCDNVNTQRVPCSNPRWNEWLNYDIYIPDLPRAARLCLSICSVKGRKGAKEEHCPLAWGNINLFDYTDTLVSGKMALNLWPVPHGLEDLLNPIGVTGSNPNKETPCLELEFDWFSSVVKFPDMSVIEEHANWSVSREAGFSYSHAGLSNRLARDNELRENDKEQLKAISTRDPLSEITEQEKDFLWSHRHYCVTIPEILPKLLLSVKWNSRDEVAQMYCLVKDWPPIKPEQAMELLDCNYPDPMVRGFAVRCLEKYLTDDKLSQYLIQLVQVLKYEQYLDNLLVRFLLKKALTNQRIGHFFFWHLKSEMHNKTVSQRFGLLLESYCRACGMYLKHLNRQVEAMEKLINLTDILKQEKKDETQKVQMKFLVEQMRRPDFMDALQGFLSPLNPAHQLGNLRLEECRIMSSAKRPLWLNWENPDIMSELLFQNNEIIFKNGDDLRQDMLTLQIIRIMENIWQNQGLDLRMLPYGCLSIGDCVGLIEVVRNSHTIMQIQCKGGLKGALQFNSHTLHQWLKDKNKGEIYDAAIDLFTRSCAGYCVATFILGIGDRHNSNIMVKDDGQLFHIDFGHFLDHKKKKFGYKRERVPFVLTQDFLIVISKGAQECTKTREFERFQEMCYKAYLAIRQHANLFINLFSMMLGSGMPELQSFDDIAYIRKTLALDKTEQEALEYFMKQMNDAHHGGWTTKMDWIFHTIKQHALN
T1 sequence (P27986 whole entry partner): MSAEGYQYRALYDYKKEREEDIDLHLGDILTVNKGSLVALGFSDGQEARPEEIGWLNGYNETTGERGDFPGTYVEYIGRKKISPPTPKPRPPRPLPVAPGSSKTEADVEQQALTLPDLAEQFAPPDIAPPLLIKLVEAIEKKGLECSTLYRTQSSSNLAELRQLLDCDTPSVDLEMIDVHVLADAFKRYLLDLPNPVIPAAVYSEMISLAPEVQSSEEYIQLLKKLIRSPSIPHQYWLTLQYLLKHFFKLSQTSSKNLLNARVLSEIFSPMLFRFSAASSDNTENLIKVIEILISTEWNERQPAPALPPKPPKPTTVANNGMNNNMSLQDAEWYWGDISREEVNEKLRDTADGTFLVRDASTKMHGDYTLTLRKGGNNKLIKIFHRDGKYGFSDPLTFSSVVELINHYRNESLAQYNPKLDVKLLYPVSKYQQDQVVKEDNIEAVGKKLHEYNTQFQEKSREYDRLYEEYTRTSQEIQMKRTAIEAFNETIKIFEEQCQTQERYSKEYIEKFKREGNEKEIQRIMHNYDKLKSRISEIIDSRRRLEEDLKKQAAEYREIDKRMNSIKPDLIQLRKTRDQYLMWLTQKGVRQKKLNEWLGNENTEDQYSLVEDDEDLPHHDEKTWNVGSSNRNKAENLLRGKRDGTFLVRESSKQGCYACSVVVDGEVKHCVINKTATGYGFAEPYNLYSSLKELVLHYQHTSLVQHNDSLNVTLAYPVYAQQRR

Turning to `Cc1cccc(Cl)c1-c1cc(Br)ccc1S(=O)(=O)N1CCC(F)(C(=O)N[C@H](C)/C=C\S(C)(=O)=O)CC1` [Compound 60, 1-((5-bromo-2′-chloro-6′-methyl-[1,1′-biphenyl]-2-yl)sulfonyl)-4-fluoro-N-((R,Z)-4-(methylsulfonyl)but-3-en-2-yl)piperidine-4-carboxamide], the IC50 came out at 810 nM. For `C[C@H](/C=C\S(C)(=O)=O)NC(=O)C1(F)CCN(S(=O)(=O)c2ccc(Br)cc2-c2cc(F)ccc2Cl)CC1` [Compound 48, (R,Z)-1-((5-bromo-2′-chloro-5′-fluoro-[1,1′-biphenyl]-2-yl)sulfonyl)-4-fluoro-N-(4-(methylsulfonyl)but-3-en-2-yl)piperidine-4-carboxamide], the IC50 is 481 nM.

Turning to `CC(C)OC(=O)N1C[C@H](C(=O)N2CCC(F)(C(=O)N[C@H](C)/C=C\S(C)(=O)=O)CC2)[C@H](c2ccccc2Cl)C1` [Compound 159, isopropyl(3R,4R)-3-(2-chlorophenyl)-4-(4-fluoro-4-(((R,Z)-4-(methylsulfonyl)but-3-en-2-yl)carbamoyl)piperidine-1-carbonyl)pyrrolidine-1-carboxylate], the IC50 turned out to be 980 nM.

For the molecule `C[C@H](/C=C\S(C)(=O)=O)NC(=O)[C@]1(F)CCN(S(=O)(=O)c2cnc(C(F)(F)F)cc2-c2ccccc2Cl)[C@H](C)C1` [Compound 214, (2R,4S)-1-((4-(2-chlorophenyl)-6-(trifluoromethyl)pyridin-3-yl)sulfonyl)-4-fluoro-2-methyl-N-((R,Z)-4-(methylsulfonyl)but-3-en-2-yl)piperidine-4-carboxamide], the IC50 stood at 220 nM. The same measure for `O=C(NC1C=CS(=O)(=O)C1)C1(F)CCN(S(=O)(=O)c2ccc(Br)cc2-c2ccccc2Cl)CC1` (racemic) [Compound 65, rac-1-((5-bromo-2′-chloro-[1,1′-biphenyl]-2-yl)sulfonyl)-N-(1,1-dioxido-2,3-dihydrothiophen-3-yl)-4-fluoropiperidine-4-carboxamide]: 54 nM; for `Cc1ccccc1-c1cc(Br)ccc1S(=O)(=O)N1CCC(F)(C(=O)N[C@H](C)/C=C\S(C)(=O)=O)CC1` [Compound 49, (R,Z)-1-((5-bromo-2′-methyl-[1,1′-biphenyl]-2-yl)sulfonyl)-4-fluoro-N-(4-(methylsulfonyl)but-3-en-2-yl)piperidine-4-carboxamide]: 125 nM; for `O=C(NCC1=CS(=O)(=O)C1)C1(F)CCN(S(=O)(=O)c2ccc(Br)cc2-c2ccccc2Cl)CC1` [Compound 233, 1-((5-bromo-2′-chloro-[1,1′-biphenyl]-2-yl)sulfonyl)-N-((1,1-dioxido-2H-thiet-3-yl)methyl)-4-fluoropiperidine-4-carboxamide]: 290 nM. On to `COc1ccc(S(=O)(=O)N2CCC(F)(C(=O)N[C@H](C)/C=C/C(=O)N3CC(F)(F)C3)CC2)c(-c2ccccc2Cl)c1` [Compound 137, (R,E)-1-((2′-chloro-5-methoxy-[1,1′-biphenyl]-2-yl)sulfonyl)-N-(5-(3,3-difluoroazetidin-1-yl)-5-oxopent-3-en-2-yl)-4-fluoropiperidine-4-carboxamide], for which the IC50 turned out to be 380 nM. The figure for `O=C(/C=C\CNC(=O)C1(F)CCN(S(=O)(=O)c2ccc(Br)cc2-c2ccccc2Cl)CC1)N1CCC1` [Compound 286, (Z)-N-(4-(azetidin-1-yl)-4-oxobut-2-en-1-yl)-1-((5-bromo-2′-chloro-[1,1′-biphenyl]-2-yl)sulfonyl)-4-fluoropiperidine-4-carboxamide] is 640 nM. The same measure for `CCOC(=O)N1C[C@H](C(=O)N2CCC(F)(C(=O)N[C@H](C)/C=C\S(C)(=O)=O)CC2)[C@H](c2ccccc2Cl)C1` [Compound 160, ethyl (3R,4R)-3-(2-chlorophenyl)-4-(4-fluoro-4-(((R,Z)-4-(methylsulfonyl)but-3-en-2-yl)carbamoyl)piperidine-1-carbonyl)pyrrolidine-1-carboxylate]: 670 nM; for `C[C@H](/C=C\S(C)(=O)=O)NC(=O)C1(F)CCN(C(=O)[C@H]2CCN(CC(F)(F)F)C[C@@H]2c2ccccc2Cl)CC1` (single isomer, unassigned) [Compound 307, 1-((3*S,4*S)-3-(2-chlorophenyl)-1-(2,2,2-trifluoroethyl)piperidine-4-carbonyl)-4-fluoro-N-((R,Z)-4-(methylsulfonyl)but-3-en-2-yl)piperidine-4-carboxamide]: 845 nM. The same measure for `C[C@H](/C=C\S(C)(=O)=O)NC(=O)[C@]1(F)CCN(S(=O)(=O)c2ccc(C#N)cc2-c2ccccc2Cl)[C@H](C)C1` [Compound 144, (2R,4S)-1-((2′-chloro-5-cyano-[1,1′-biphenyl]-2-yl)sulfonyl)-4-fluoro-2-methyl-N-((R,Z)-4-(methylsulfonyl)but-3-en-2-yl)piperidine-4-carboxamide]: 55 nM; for `C[C@H](/C=C/C(=O)N1CC(F)(F)C1)NC(=O)[C@]1(F)CCN(S(=O)(=O)c2ccc(C#N)cc2-c2ccccc2Cl)[C@H](C)C1` [Compound 154, (2R,4S)-1-((2′-chloro-5-cyano-[1,1′-biphenyl]-2-yl)sulfonyl)-N-((R,E)-5-(3,3-difluoroazetidin-1-yl)-5-oxopent-3-en-2-yl)-4-fluoro-2-methylpiperidine-4-carboxamide]: 190 nM; for `C[C@H](/C=C/C(=O)N1CC(F)(F)C1)NC(=O)C1(F)CCN(S(=O)(=O)c2ccc(C#N)cc2-c2ccccc2Cl)CC1` [Compound 136, (R,E)-1-((2′-chloro-5-cyano-[1,1′-biphenyl]-2-yl)sulfonyl)-N-(5-(3,3-difluoroazetidin-1-yl)-5-oxopent-3-en-2-yl)-4-fluoropiperidine-4-carboxamide]: 190 nM. Turning to `COc1ccc(S(=O)(=O)N2CCC[C@@](F)(C(=O)N[C@H](C)/C=C\S(C)(=O)=O)CC2)c(-c2ccccc2Cl)c1` [Compound 313, (S)-1-((2′-chloro-5-methoxy-[1,1′-biphenyl]-2-yl)sulfonyl)-4-fluoro-N-((R,Z)-4-(methylsulfonyl)but-3-en-2-yl)azepane-4-carboxamide], the IC50 was 530 nM.

Take `C[C@H](/C=C\S(C)(=O)=O)NC(=O)C1(F)CCN(C(=O)[C@H]2CN(CC(F)(F)F)C[C@H]2c2ccccc2Cl)CC1` [Compound 163, 1-((3R,4R)-4-(2-chlorophenyl)-1-(2,2,2-trifluoroethyl)pyrrolidine-3-carbonyl)-4-fluoro-N-((R,Z)-4-(methylsulfonyl)but-3-en-2-yl)piperidine-4-carboxamide]: the IC50 was 500 nM. Turning to `O=C(N[C@H]1C=CS(=O)(=O)C1)C1(F)CCN(S(=O)(=O)c2ccc(Br)cc2-c2ccccc2Cl)CC1` [Compound 67, (S)-1-((5-bromo-2′-chloro-[1,1′-biphenyl]-2-yl)sulfonyl)-N-(1,1-dioxido-2,3-dihydrothiophen-3-yl)-4-fluoropiperidine-4-carboxamide], the IC50 came to 95.6 nM. The same measure for `COC1(C(=O)N[C@H](C)/C=C\S(C)(=O)=O)CCN(S(=O)(=O)c2ccc(Br)cc2-c2ccccc2Cl)CC1` [Compound 133, (R,Z)-1-((5-bromo-2′-chloro-[1,1′-biphenyl]-2-yl)sulfonyl)-4-methoxy-N-(4-(methylsulfonyl)but-3-en-2-yl)piperidine-4-carboxamide]: 220 nM. The same measure for `CC(O)c1ccc(S(=O)(=O)N2CCC(F)(C(=O)N[C@H](C)/C=C\S(C)(=O)=O)CC2)c(-c2ccccc2Cl)c1` (stereo partly drawn) [Compound 129, 1-((2′-chloro-5-(1-hydroxyethyl)-[1,1′-biphenyl]-2-yl)sulfonyl)-4-fluoro-N-((R,Z)-4-(methylsulfonyl)but-3-en-2-yl)piperidine-4-carboxamide]: 440 nM; for `C[C@H](/C=C\S(C)(=O)=O)NC(=O)C1(F)CCN(S(=O)(=O)c2ccc(CO)cc2-c2ccccc2Cl)CC1` [Compound 130, (R,Z)-1-((2′-chloro-5-(hydroxymethyl)-[1,1′-biphenyl]-2-yl)sulfonyl)-4-fluoro-N-(4-(methylsulfonyl)but-3-en-2-yl)piperidine-4-carboxamide]: 470 nM.

On to `C[C@@H]1C[C@](F)(C(=O)NC/C=C\C(=O)N2CC(F)(F)C2)CCN1S(=O)(=O)c1ccc(Br)cc1-c1ccccc1Cl` [Compound 291, (2R,4S)-1-((5-bromo-2′-chloro-[1,1′-biphenyl]-2-yl)sulfonyl)-N-((Z)-4-(3,3-difluoroazetidin-1-yl)-4-oxobut-2-en-1-yl)-4-fluoro-2-methylpiperidine-4-carboxamide], for which the IC50 turned out to be 320 nM. The same measure for `C[C@H](/C=C\S(C)(=O)=O)NC(=O)C1(F)CCN(S(=O)(=O)c2cc3sccc3cc2-c2ccccc2Cl)CC1` [Compound 157, (R,Z)-1-((5-(2-chlorophenyl)benzo [b]thiophen-6-yl)sulfonyl)-4-fluoro-N-(4-(methylsulfonyl)but-3-en-2-yl)piperidine-4-carboxamide]: 200 nM. The figure for `C[C@H](/C=C\S(C)(=O)=O)NC(=O)C1(F)CCN(S(=O)(=O)c2ccc(Br)cc2-c2cccc(Cl)c2)CC1` [Compound 55, (R,Z)-1-((5-bromo-3′-chloro-[1,1′-biphenyl]-2-yl)sulfonyl)-4-fluoro-N-(4-(methylsulfonyl)but-3-en-2-yl)piperidine-4-carboxamide] is 710 nM.

As to `C[C@H](/C=C\S(C)(=O)=O)NC(=O)C1(F)CCN(S(=O)(=O)c2cnc(C(F)(F)F)cc2-c2ccc(F)cc2Cl)CC1` [Compound 211, (R,Z)-1-((4-(2-chloro-4-fluorophenyl)-6-(trifluoromethyl)pyridin-3-yl)sulfonyl)-4-fluoro-N-(4-(methylsulfonyl)but-3-en-2-yl)piperidine-4-carboxamide], the IC50 was 1000 nM. The same measure for `C[C@@H](/C=C\S(C)(=O)=O)NC(=O)C1(F)CCN(S(=O)(=O)c2cnc(C(F)(F)F)cc2-c2ccc(F)cc2Cl)CC1` [Compound 212, (S,Z)-1-((4-(2-chloro-4-fluorophenyl)-6-(trifluoromethyl)pyridin-3-yl)sulfonyl)-4-fluoro-N-(4-(methylsulfonyl)but-3-en-2-yl)piperidine-4-carboxamide]: 380 nM.
